Experiment [1] addresses T1, Brd4 (Homo sapiens, UniProt O60885).
T1 construct: endogenous in cells; host or cells: MV4;11; HL60
The experiment is described as follows: Brd4 depletion in HL60 (immunoblot). The experiment is classed as cell-based. (Immunoblotting shows a protein as a band on a membrane.)

The target of experiment [2] is Brd4 tandem bromodomain. As to conditions: cited from earlier work.
The target of experiment [3] is Brd3BD1 (Homo sapiens, UniProt Q15059). The experiment is described as follows: ITC binary titration, Brd3BD1 into 10. The experiment is classed as binding. The following applies: Brd3BD1 in syringe. The text has this:
(§1) Bromodomain and VCB complex constructs and protein preparation were described in a previous publication.[5] Wild-type version of human proteins VHL (UniProt accession number P40337), ElonginC (Q15369), ElonginB (Q15370), and the bromodomains of Brd2 (P25440), Brd3 (Q15059), and Brd4 (O60885) were used for all protein expression. In brief, the His6-tagged constructs were transformed into E. coli BL21(DE3) and induced with IPTG to produce the desired proteins. […] After cleaving the His-tag by TEV protease, a second Ni affinity column purification was performed to obtain tag-free protein in the flow-through. VCB was then additionally purified by anion exchange using MonoQ (GE Healthcare). For all proteins, purity was further polished by gel filtration chromatography.
(§2) Titrations were performed on an ITC200 microcalorimeter (GE Healthcare) as previously reported.[5] The titrations were in ITC buffer (20 mM Bis-Tris propane, 150 mM NaCl, 1 mM tris(2-carboxyethyl)phosphine (TCEP), pH 7.4), supplemented with either 0.2% or 3% DMSO and consisted of 19 injections of 2 μL of protein solution at a rate of 0.5 μL/s at 120 s time intervals. An initial injection of protein (0.4 μL) was made and discarded during data analysis. All experiments were performed at 25 °C, while stirring at 600 rpm. PROTACs were diluted from a 10 mM DMSO stock solution to 20 μM in ITC buffer with the final concentration of DMSO to be 0.2% for triazolodiazepine-based PROTAC or 3% for tetrahydroquinoline-based PROTAC. Bromodomain protein in the same buffer was titrated into the PROTAC in the cell. At the end of the titration, the excess of solution was removed from the cell, the syringe was washed and dried, and VCB complex (168 μM, in the same buffer) was loaded in the syringe and titrated into the complex of PROTAC–bromodomain. The concentration of the complex in the cell (C) after the first titration (16.8 μM) was calculated as follows: [drawing 1] where C0 is the initial concentration of the PROTAC in the cell (20 μM), Vcell is the volume of the sample cell (200.12 μL), and Vinj is the volume of titrant injected during the first titration (38.4 μL). Titrations for the binary complex PROTAC–VCB were performed in the same manner with VCB titrated into 16.8 μM PROTAC in the cell. […] The data were fitted to a single-binding-site model to obtain the stoichiometry n, the dissociation constant Kd, and the enthalpy of binding ΔH using the Microcal LLC ITC200 Origin software provided by the manufacturer.
(§3) Table S1. ITC results for the formation of binary and ternary complexes between 10, BET Bromodomain and VCB
(§4) Protein in Species in cell Kd (nM) ΔG (kcal × ΔH (kcal × -TΔS (kcal N α ΔpKd
(§5) Syringe mol-1) mol-1) × mol-1)
(§6) Titrations were performed at 25°C in duplicate except for VCB into 10, which was performed in quadruplicate.
(§7) Values reported are the mean ± s.e.m.

The target of experiment [4] is VCB / Brd4BD1 ternary complex (Homo sapiens, UniProt O60885+P40337). Description: ITC ternary titration, VCB into Brd4BD1:10. The experiment is classed as binding.
Source text: as §1, §2, §3, §4, §5, §6, §7

In experiment [5] the target is VCB / Brd3BD2 ternary complex (Homo sapiens, UniProt P40337+Q15059). Description: ITC ternary titration, VCB into Brd3BD2:10. The experiment is classed as binding.
Source text: as §1, §2, §3, §4, §5, §6, §7

Experiment [6] addresses VHL-EloC-EloB protein (VCB) (Homo sapiens, UniProt P40337). Description: ITC binary titration, VCB into PROTAC. As to conditions: VCB in syringe, PROTAC in cell. The experiment is classed as binding.
The target in experiment [7] is Brd2BD2 (Homo sapiens, UniProt P25440). Description: ITC binary titration, Brd2BD2 into 10. The following applies: Brd2BD2 in syringe. The experiment is classed as binding.
Source text: as §1, §2, §3, §4, §5, §6, §7

Experiment [8] relates to BET proteins Brd2, Brd3, Brd4. The experiment is described as follows: BET degradation profile in HeLa cells. The experiment is classed as cell-based.
For experiment [9], the target named is Brd3BD2 (Homo sapiens, UniProt Q15059). The experiment is described as follows: ITC binary titration, Brd3BD2 into 10. The experiment is classed as binding. As to conditions: Brd3BD2 in syringe.
Source text: as §1, §2, §3, §4, §5, §6, §7

The target in experiment [10] is Brd2BD1 (Homo sapiens, UniProt P25440). Description: ITC binary titration, Brd2BD1 into 10. The experiment is classed as binding. As to conditions: Brd2BD1 in syringe.
Source text: as §1, §2, §3, §4, §5, §6, §7

The target in experiment [11] is VCB / Brd2BD1 ternary complex (Homo sapiens, UniProt P25440+P40337). The experiment is described as follows: ITC ternary titration, VCB into Brd2BD1:10. The experiment is classed as binding.
Source text: as §1, §2, §3, §4, §5, §6, §7

The target of experiment [12] is VCB / Brd3BD1 ternary complex (Homo sapiens, UniProt P40337+Q15059). Description: ITC ternary titration, VCB into Brd3BD1:10. The experiment is classed as binding.
Source text: as §1, §2, §3, §4, §5, §6, §7

Experiment [13] has as its target VCB / Brd4^BD2 ternary complex (Homo sapiens, UniProt O60885+P40337). Description: ITC ternary titration, VCB into Brd4^BD2–PROTAC complex. The experiment is classed as binding.
In experiment [14] the target is Brd4BD1 (Homo sapiens, UniProt O60885). Description: ITC binary titration, Brd4BD1 into 10. As to conditions: Brd4BD1 in syringe. The experiment is classed as binding.
Source text: as §1, §2, §3, §4, §5, §6, §7

In experiment [15] the target is VCB / Brd2BD2 ternary complex (Homo sapiens, UniProt P25440+P40337). Description: ITC ternary titration, VCB into Brd2BD2:10. The experiment is classed as binding.
Source text: as §1, §2, §3, §4, §5, §6, §7

Experiment [16] has as its target Brd4^BD2 (Homo sapiens, UniProt O60885). The experiment is described as follows: ITC binary titration, Brd4^BD2 into PROTAC. The following applies: Brd4^BD2 in syringe, PROTAC in cell. The experiment is classed as binding.

Like-named read-outs stand apart in the source and are kept apart here.

Usually Kd stands for the constant that tells how readily two partners part at equilibrium. The term stoichiometry N denotes a count of units in the complex or per binding partner.

Brd3BD1, sequence (Q15059 34-140 limits assumed): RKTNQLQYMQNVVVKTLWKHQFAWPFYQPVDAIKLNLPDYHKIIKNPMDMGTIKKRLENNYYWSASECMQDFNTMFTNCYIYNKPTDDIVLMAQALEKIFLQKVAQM
Brd3BD2, sequence (Q15059 306-415 limits assumed): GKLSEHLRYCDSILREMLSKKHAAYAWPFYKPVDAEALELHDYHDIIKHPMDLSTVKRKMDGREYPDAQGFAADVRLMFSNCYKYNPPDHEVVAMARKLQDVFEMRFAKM
Brd2BD2, sequence (P25440 344-453 limits assumed): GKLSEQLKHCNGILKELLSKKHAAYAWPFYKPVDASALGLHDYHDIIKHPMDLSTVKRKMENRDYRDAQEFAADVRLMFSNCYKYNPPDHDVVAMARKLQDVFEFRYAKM
Brd2BD1, sequence (P25440 74-180 limits assumed): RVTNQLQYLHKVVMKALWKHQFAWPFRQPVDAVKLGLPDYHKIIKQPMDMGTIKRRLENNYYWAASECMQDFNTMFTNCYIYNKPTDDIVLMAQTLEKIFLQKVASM

For the compound `Cc1sc2c(c1C)C(c1ccc(Cl)cc1)=N[C@@H](CC(=O)OC(C)(C)C)c1nnc(C)n1-2` [compound 3], the “Brd4 depletion (%) HL60” value in experiment [1] is “–243/20%”.
In the case of `CC(=O)N1c2ccc(-c3ccc(C(=O)O)cc3)cc2[C@H](Nc2ccc(Cl)cc2)C[C@@H]1C` [compound 4], the Kd in [2] was 4 nM. Besides, in experiment [1] (50 nM, 4 h, HL60), the “Brd4 depletion (%) HL60” value is reported as “–157%”.
With `CC(=O)N1c2ccc(-c3ccc(C(=O)NCCOCCOCCOCCOCC(=O)N[C@H](C(=O)N4C[C@H](O)C[C@H]4C(=O)NCc4ccc(-c5scnc5C)cc4)C(C)(C)C)cc3)cc2[C@H](Nc2ccc(Cl)cc2)C[C@@H]1C` [compound 10, (2S,4R)-1-((S)-1-(4-((2S,4R)-1-Acetyl-4-((4-chlorophenyl)amino)-2-methyl-1,2,3,4-tetrahydroquinolin-6-yl)phenyl)-18-(tert-butyl)-1,16-dioxo-5,8,11,14-tetraoxa-2,17-diazanonadecan-19-oyl)-4-hydroxy-N-(4-(4-methylthiazol-5-yl)benzyl)pyrrolidine-2-carboxamide], the “-TΔS” value in [3] is 3.2 ± 0.2 kcal/mol; in [4] (ternary, VCB into Brd4BD1:10), -6.63 ± 0.09 kcal/mol; in [5] (ternary, VCB into Brd3BD2:10), -1.37 ± 0.54 kcal/mol; in [7] it was -1.19 ± 0.07 kcal/mol; in experiment [9] it was 3.0 ± 0.1 kcal/mol; in experiment [10] it was 1.86 ± 0.02 kcal/mol. Further, the “-TΔS” value in experiment [11] (ternary, VCB into Brd2BD1:10) was -4.19 ± 0.92 kcal/mol; in experiment [12] (ternary, VCB into Brd3BD1:10), -5.18 ± 0.14 kcal/mol; in experiment [14], 1.6 ± 0.7 kcal/mol; in experiment [15] (ternary, VCB into Brd2BD2:10) it was -1.02 ± 0.61 kcal/mol. Further, the N is given as 0.98 ±0.04 in experiment [3]; 0.70 ±0.07 in experiment [4] (ternary, VCB into Brd4BD1:10); 1.03 ±0.15 in [5] (ternary, VCB into Brd3BD2:10); 0.84 ±0.05 in experiment [7]; 1.02 ±0.09 in experiment [9]; 1.00 ±0.08 in experiment [10]. In addition, the N in [11] (ternary, VCB into Brd2BD1:10) is given as 0.99 ±0.08; in experiment [12] (ternary, VCB into Brd3BD1:10), 1.03 ±0.18; in experiment [14], 0.73 ±0.02; in experiment [15] (ternary, VCB into Brd2BD2:10) it was 0.73 ±0.02. Moreover, the ΔG in experiment [3] was -10.1 ± 0.1 kcal/mol; in experiment [4] (ternary, VCB into Brd4BD1:10) it was -9.11 ± 0.18 kcal/mol; in [5] (ternary, VCB into Brd3BD2:10), -8.71 ± 0.18 kcal/mol; in experiment [7], -11.3 ± 0.01 kcal/mol; in experiment [9], -10.9 ± 0.3 kcal/mol; in experiment [10], -10.0 ± 0.2 kcal/mol. The ΔG in experiment [11] (ternary, VCB into Brd2BD1:10) is -8.95 ± 0.31 kcal/mol; in [12] (ternary, VCB into Brd3BD1:10), -9.31 ± 0.12 kcal/mol; in [14], -10.3 ± 0.4 kcal/mol; in [15] (ternary, VCB into Brd2BD2:10), -8.80 ± 0.23 kcal/mol. For the same compound, the ΔH in experiment [3] was -13.3 ± 0.4 kcal/mol; in [4] (ternary, VCB into Brd4BD1:10), -2.47 ± 0.09 kcal/mol; in [5] (ternary, VCB into Brd3BD2:10), -7.33 ± 0.36 kcal/mol; in experiment [7] it was -10.1 ± 0.1 kcal/mol; in experiment [9], -13.9 ± 0.4 kcal/mol; in [10], -11.9 ± 0.2 kcal/mol. The ΔH is -4.76 ± 0.62 kcal/mol in [11] (ternary, VCB into Brd2BD1:10); -4.13 ± 0.02 kcal/mol in experiment [12] (ternary, VCB into Brd3BD1:10); -11.9 ± 0.3 kcal/mol in experiment [14]; -7.77 ± 0.37 kcal/mol in [15] (ternary, VCB into Brd2BD2:10). Further, the Kd in experiment [3] (10 in cell, 25°C) was found to be 39 ± 8 nM; in experiment [4] (ternary, VCB in syringe, Brd4BD1:10 in cell, 25°C) it was 221 ± 65 nM; in experiment [5] (ternary, VCB in syringe, Brd3BD2:10 in cell, 25°C), 434 ± 128 nM; in experiment [7] (10 in cell, 25°C), 5 ± 0.1 nM; in experiment [9] (10 in cell, 25°C) it was 11 ± 5 nM; in experiment [10] (10 in cell, 25°C), 45 ± 13 nM. The Kd in experiment [12] (ternary, VCB in syringe, Brd3BD1:10 in cell, 25°C) is 152 ± 30 nM; in [14] (10 in cell, 25°C), 39 ± 24 nM; in experiment [15] (ternary, VCB in syringe, Brd2BD2:10 in cell, 25°C) it was 384 ± 145 nM. In addition, the α in experiment [4] (cooperativity, Brd4BD1) is on record as 0.5; in experiment [5] (cooperativity, Brd3BD2) it was 0.3; in experiment [11] (cooperativity, Brd2BD1), 0.3; in [12] (cooperativity, Brd3BD1), 0.7; in experiment [13] (cooperativity, ratio between binary and ternary Kd, Brd4^BD2), 0.6; in [15] (cooperativity, Brd2BD2), 0.3. In addition, the ΔpKd was 0.29 ±0.14 in [4] (ternary vs binary, Brd4BD1); 0.58 ±0.14 in experiment [5] (ternary vs binary, Brd3BD2); 0.41 ±0.23 in [11] (ternary vs binary, Brd2BD1); 0.14 ±0.09 in experiment [12] (ternary vs binary, Brd3BD1); 0.52 ±0.17 in experiment [15] (ternary vs binary, Brd2BD2). Moreover, the “stoichiometry N” value is recorded as 0.92 ± 0.15 in experiment [6]; 0.87 ± 0.02 in [13] (ternary, VCB in syringe, Brd4^BD2–PROTAC in cell); 0.86 ± 0.06 in experiment [16]. Further, the “window of concentration for selective degradation of BRD3/4” value in experiment [8] was in the range of 30 to 100 nM. The “concentration with increased levels of BET proteins (hook effect)” value in experiment [8] (24 h) was in the range of 1 to 10 µM. In addition, the intra-BET degradation selectivity entry in [8] (24 h) was “depletion selectivity for Brd4 and Brd3 over Brd2”. The “cooperativity (α) Brd4–BD2” value in experiment [13] (ternary complex formation with VCB and Brd4^BD2, as tabulated in Table 2) is 0.59. The “ΔpKd ± uncertainty” value in experiment [13] (ternary vs binary, Brd4^BD2) is “–0.22 ± 0.08”.

The record behind these values is article PMC5788402, “Impact of Target Warhead and Linkage Vector on Inducing Protein Degradation: Comparison of Bromodomain and Extra-Terminal (BET) Degraders Derived from Triazolodiazepine (JQ1) and Tetrahydroquinoline (I-BET726) BET Inhibitor Scaffolds” (Journal of Medicinal Chemistry, 2017).
